The test system of experiment [1] is barley powdery mildew Erysiphe graminis. Description: Barley powdery mildew control on barley plants. The class given is in vivo. As to conditions: 2000 ppm; soil and leaves; 10 days; controls less than 5%.
Experiment [2] deals with potato blight, Phytophthora infestans. The class given is in vivo. The conditions noted are these: 2,000 ppm; 5 days; controls less than 5%.
For experiment [3], the system named is Mustard (Sinapis alba). The experiment can be described thus: Post-emergence foliar spray, herbicidal/growth regulant response, mustard. As to conditions: 168 h, foliar spray 11.2 kg/ha, 7 days, 0=no effect, 100=complete kill, read-out: herbicidal or growth regulant response index. The class given is in vivo. As to the method:
(§1) Seeds of the plant species listed below were sown in anodised aluminium pans, 19 cm long×9.5 cm wide×5 cm deep, containing John Innes I potting compost. They were then watered and placed in a controlled environment room (22° C.; 65-85% relative humidity; 14 hours per day artificial illumination at 13,000 lux). Fourteen days after sowing, the seedlings received a foliar spray of a compound listed below, formulated as a solution in 1:1 by volume aqueous acetone. The concentration of active ingredient and volume of application were adjusted so as to be equivalent to a rate of 11.2 kg/ha in 450 liters per hectare. After seven days growth in the controlled environment room, the plants were visually assessed for any herbicidal or growth regulant response. All differences from the untreated control were scored according to an index where 0=no effect and 100=complete kill.
(§2) The product of Example 95 was tested according to the procedure of Examples 49-55.

Experiment [4] relates to Peas (Pisum sativum). Description: Post-emergence foliar spray, herbicidal/growth regulant response, peas. The class given is in vivo. The conditions noted are these: Lathyrus oleraceus, 168 h, foliar spray 11.2 kg/ha, 7 days, 0=no effect, 100=complete kill, read-out: herbicidal or growth regulant response index. As to the method:
as §1, §2

The subject of experiment [5] is Pythium ultimum. Description: Fungal growth on the surface of soil infected with damping-off disease organism. It is filed as in vivo. As to conditions: 6 days, 25° C., 0-8 scale. As to the method: (§3) A one week old maize meal/sand culture of the damping-off disease organism Pythium ultimum was thoroughly mixed by hand with clean sterile John Innes No. 1 potting compost in the ratio of 3 kg culture to 12 liters of soil. The infected soil was then left for approximately 18 hours before use. Each of the compounds listed below was ground together with a wetting agent, Tween 20 (1% of final volume), until a solution or fine suspension was produced which was then diluted with distilled water to give 160 ml of solution containing 1500, 500, 150 or 50 ppm active ingredient. 15 ml aliquots of this solution were added to 75 g portions of the soil infected with Pythium ultimum which were contained in small plastic cartons, 60 mm diameter×55 mm high. Fifteen cabbage seeds, variety Flower of Spring, were placed in a circular depression in the treated infected soil, recovered, and the whole sealed with a plastic cap. The cartons were then placed in a constant temperature room at 25° C.±1° C. Four replications per treatment were made with one additional treatment where seeds were sown in soil which was chemically treated only, i.e. there was no infection. This latter treatment was included to measure the direct effect of the chemical on the germination of the seed. After six days the cartons were removed from the controlled temperature chamber and assessed for degree of fungal growth on the soil surface and percentage of seedling emergence. The results of both these assessments are expressed in a 0-8 scale as follows:
(§4) One week old maize meal/sand culture of the damping-off disease organism Pythium ultimum was thoroughly mixed by hand with clean sterile John Innes No. 1 potting compost in the ratio of 3 kg culture to 12 liters of soil. This infected soil was then left for approximately 18 hours before use. The compounds listed in the Table below were each ground with the wetting agent Tween 20 (1% of final volume), until a solution or fine suspension was produced, which was then diluted with distilled water to give 160 ml of solution containing 1500 or 500 parts per million (ppm) active ingredient. 15 ml aliquots of this solution were added to 75 g portions of the soil infected with Pythium ultimum which were contained in small plastic cartons, 60 mm diameter×55 mm high.
(§5) Fifteen cabbage seeds, variety Flower of Spring, were placed in a circular depression in the treated infected soil, recovered, and the whole sealed with a plastic cap. The cartons were then placed in a constant temperature room at 25° C.±1° C. Four replications per treatment were made, with one additional treatment where seeds were sown in soil which was chemically treated only, i.e. there was no infection. This latter treatment was included to measure the direct effect of the chemical on the germination of the seed.
(§6) After six days, the cartons were removed from the controlled temperature chamber and assessed for degree of fungal growth on the soil surface and percentage of seedling emergence. The results of both these assessments are expressed in a 0-8 scale as follows:
(§7) N-(2-oxopropyl)-3',4'-dimethyl-methanesulphonanilide was tested at a dose rate of 300 ppm in the test described in Examples 233 and 234. It gave a mycelial control score of 0 and a germination score of 3 whereas the untreated samples gave a score of 0 for both.

The test system of experiment [6] is Pythium ultimum. Description: Cabbage seedling emergence in soil infected with Pythium ultimum. The class given is in vivo, Pythium ultimum (on cabbage, variety Flower of Spring). As to conditions: 6 days, 25° C., 0-8 scale. As to the method: as §3, §4, §5, §6, §7
Another experiment concerns Oats (Avena sativa). The experiment can be described thus: Soil incorporation (attaclay/sand dust), growth regulatory or herbicidal effects, oats. It is filed as in vivo. As to conditions: 504 h, soil incorporation 130 ppm, 21 days, 0=no effect, 100=complete kill/suppression, read-out: growth regulatory or herbicidal effect score. An excerpt: (§8) The compounds listed below were each formulated as an attaclay/sand dust and incorporated into John Innes I potting compost at a rate equivalent to 26 parts per million weight/volume of active ingredient to soil and placed in anodised aluminium pans, 19 cm long×9.5 cm wide×5.0 cm deep. This rate is approximately equivalent to a soil surface application of 11.2 kg active ingredient/hectare cultivated to a depth of 5 cm. Seeds of the species listed below were sown in the treated soil, watered and placed in a controlled environment room (22° C.; 65-85% relative humidity; 14 hours per day artificial illumination at 13,000 lux) for 21 days. The plants were then visually assessed for any growth regulatory or herbicidal effects. All differences from an untreated control were scored on a scale from 0-100, where 0 signifies no effect and 100 signifies complete kill.
(§9) The compounds listed below were tested according to the procedure of Examples 56-60 but at 130 parts per million weight/volume of active ingredient to soil. This rate is approximately equivalent to a soil surface application of 56 kg active ingredient per hectare cultivated to a depth of 5 cm.
(§10) The product of Example 95 was tested according to the procedure of Examples 56-60 but at 130 and 26 parts per million weight/volume. The results were as follows:
(§11) N-(2-oxopropyl)-2'-chloro-6'-methyl-methanesulphonanilide, formulated as an attaclay/sand dust, was incorporated in John Innes I potting compost at a rate equivalent to 130 parts per million weight/volume of active ingredient to soil and placed in anodised aluminium pans, 19 cm long×9.5 cm wide×5.0 cm deep. These rates are approximately equivalent to a soil surface application of 56 kg active ingredient per hectare cultivated to a depth of 5 cm. Seeds of Peas, Mustard, Linseed, Maize, Oats and Ryegrass were sown in the treated soil, watered and placed in a controlled environment room (22° C.; 65-85% relative humidity; 14 hours artificial illumination at 13000 lux) for 21 days.
(§12) The plants were then visually assessed for any growth regulatory or herbicidal effects. All differences from an untreated control were scored on a scale from 0-100, where 0 signifies no effect and 100 signifies complete suppression.

In experiment [7] the test system is Linseed (Linum usitatissimum). The experiment can be described thus: Soil incorporation (attaclay/sand dust), growth regulatory or herbicidal effects, linseed. It is filed as in vivo. The conditions noted are these: 504 h, soil incorporation 130 ppm, 21 days, 0=no effect, 100=complete kill/suppression, read-out: growth regulatory or herbicidal effect score.
Source text: as §8, §9, §10, §11, §12

Experiment [8] has as its system Peas (Pisum sativum). Description: Soil incorporation (attaclay/sand dust), growth regulatory or herbicidal effects, peas. The class given is in vivo. As to conditions: Lathyrus oleraceus, 504 h, soil incorporation 130 ppm, 21 days, 0=no effect, 100=complete kill/suppression, read-out: growth regulatory or herbicidal effect score.
Source text: as §8, §9, §10, §11, §12

Experiment [9] deals with Mustard (Sinapis alba). The experiment can be described thus: Soil incorporation (attaclay/sand dust), growth regulatory or herbicidal effects, mustard. The class given is in vivo. As to conditions: 504 h, soil incorporation 130 ppm, 21 days, 0=no effect, 100=complete kill/suppression, read-out: growth regulatory or herbicidal effect score.
Source text: as §8, §9, §10, §11, §12

The test system of the next experiment is Oat (Avena sativa). The experiment can be described thus: Post-emergence foliar spray, herbicidal/growth regulant response, oat. It is filed as in vivo. As to conditions: 168 h, foliar spray 11.2 kg/ha, 7 days, 0=no effect, 100=complete kill, read-out: herbicidal or growth regulant response index. As to the method:
as §1, §2

Experiment [10] has as its system Ryegrass (Lolium perenne). The experiment can be described thus: Post-emergence foliar spray, herbicidal/growth regulant response, ryegrass. It is filed as in vivo. The conditions noted are these: 168 h, foliar spray 11.2 kg/ha, 7 days, 0=no effect, 100=complete kill, read-out: herbicidal or growth regulant response index. As to the method:
as §1, §2

Experiment [11] has as its system Sugarbeet (Beta vulgaris). Description: Post-emergence foliar spray, herbicidal/growth regulant response, sugarbeet. It is filed as in vivo. The conditions noted are these: 168 h, foliar spray 11.2 kg/ha, 7 days, 0=no effect, 100=complete kill, read-out: herbicidal or growth regulant response index. As to the method: as §1, §2
In experiment [12] the test system is Ryegrass (Lolium perenne). The experiment can be described thus: Soil incorporation (attaclay/sand dust), growth regulatory or herbicidal effects, ryegrass. The class given is in vivo. The conditions noted are these: 504 h, soil incorporation 130 ppm, 21 days, 0=no effect, 100=complete kill/suppression, read-out: growth regulatory or herbicidal effect score.
Source text: as §8, §9, §10, §11, §12

For experiment [13], the system named is Linseed (Linum usitatissimum). Description: Post-emergence foliar spray, herbicidal/growth regulant response, linseed. It is filed as in vivo. The conditions noted are these: 168 h, foliar spray 11.2 kg/ha, 7 days, 0=no effect, 100=complete kill, read-out: herbicidal or growth regulant response index. As to the method:
as §1, §2

Another experiment relates to Maize (Zea mays). Description: Soil incorporation (attaclay/sand dust), growth regulatory or herbicidal effects, maize. It is filed as in vivo. The conditions noted are these: 504 h, soil incorporation 130 ppm, 21 days, 0=no effect, 100=complete kill/suppression, read-out: growth regulatory or herbicidal effect score.
Source text: as §8, §9, §10, §11, §12

Experiment [14] concerns potato blight Phytophthora infestans. The class given is in vivo. As to conditions: 2000 ppm; 5 days; controls less than 5%.

Molecules are shown by their SMILES.

Take `Cc1cccc(C)c1N(CCCC#N)S(C)(=O)=O` [Example 146]: the “% Control, barley powdery mildew” value in experiment [1] is 92%.

As to `CS(=O)(=O)N(CCCC#N)c1ccc(Cl)c(Cl)c1` [Example 147], the “% Control, barley powdery mildew” value in [1] worked out at 96%.

Consider `Cc1cccc(C)c1N(CC1(C)OCCO1)S(C)(=O)=O` [Example 231, N-[(2-methyl-1,3-dioxolan-2-yl)methyl]-2',6'-dimethylmethanesulphonanilide], for which the “% Control, potato blight” value in experiment [2] was 98%.

`CCOC(=O)C(C)N(c1c(C)cccc1C)S(=O)(=O)CC` (centres unmarked) [Example 26, N-(1-[ethoxycarbonyl]ethyl)-2',6'-dimethyl-ethanesulphonanilide]: the pest or weed control at 11200 g/ha in the experiment on Mustard (Sinapis alba) [3] was 100%; in the experiment on Peas (Pisum sativum) [4], 5%; in [10], 40%; in experiment [13], 100%. Further, the “Mycelial Control Score” value with Pythium ultimum [5] (30 ppm), in the experiment on Pythium ultimum [5] (100 ppm) and in the experiment with Pythium ultimum [5] (300 ppm) was 0 (<20% inhibition) in each case. Besides, the “Germination Score” value with Pythium ultimum [6] (30 ppm) is reported as 3 (45-54% inhibition); in the experiment on Pythium ultimum [6] (100 ppm) it was 4 (55-64% inhibition); in the experiment on Pythium ultimum [6] (300 ppm) it was 4 (55-64% inhibition). Besides, the plant injury at 130 µg/mL with Oats (Avena sativa) and in the experiment on Maize (Zea mays) was 100% throughout. In addition, the pest or weed control at 130 µg/mL (in experiment [7]; with Peas (Pisum sativum) [8]; in the experiment with Mustard (Sinapis alba) [9]; in [12]) was 100% each time. The plant injury at 11200 g/ha in the experiment on Oat (Avena sativa) was determined as 40%; in experiment [11] it was 90%.

For the molecule `Cc1cccc(C)c1N(CC#N)S(C)(=O)=O` [Example 46], the “% Control, potato blight” value in experiment [14] stood at 56%. The plant injury at 130 µg/mL amounted to 70% with Oats (Avena sativa) and 30% with Maize (Zea mays). Also, the pest or weed control at 130 µg/mL in [7] worked out at 90%; with Peas (Pisum sativum) [8] it was 20%; in the experiment on Mustard (Sinapis alba) [9] it was 100%; in experiment [12], 80%.

Take `Cc1ccc(N(CCCC#N)S(C)(=O)=O)cc1C` [Example 148]: the “% Control, barley powdery mildew” value in [1] is on record as 89%.

Values taken from patent US4309559A, “Sulphonamides useful as pesticides” (FBC Limited, priority 1977, dated 1982).
